Experimental data published in patent US20250152585A1, “PHARMACEUTICAL COMPOUND” (Duke Street Bio Limited, priority 2022, published 2025).

Tests used:
[1] = target: T1, N-terminally FLAG-tagged PARP2 (amino acids 1-583) (Homo sapiens, UniProt Q9UGN5); test: PARP2 probe displacement HTRF assay; format: binding; conditions: binned Kd, probe displacement HTRF
T1 construct: N-terminally FLAG-tagged PARP2 (amino acids 1-583)
Protocol: Data analysis was performed identical as for PARP1.

[2] = target: T2, full length N-terminally FLAG-tagged PARP1 (Homo sapiens, UniProt P09874); test: PARP1 probe displacement HTRF assay; conditions: probe displacement HTRF; for Selectivity: PARP1 over PARP2, ratio Kd (PARP2)/Kd (PARP1); for Kd: read-out: PARP1 HTRF, binned Kd
[3] = target: T2, full length N-terminally FLAG-tagged PARP1; test: PARP1 biochemical DELFIA assay (auto-PARylation); set-up: recombinant full length human N-terminally FLAG-tagged PARP1; conditions: binned IC50, biochemical auto-PARylation assay

T1 sequence (Q9UGN5 whole entry, the tested form may be a part): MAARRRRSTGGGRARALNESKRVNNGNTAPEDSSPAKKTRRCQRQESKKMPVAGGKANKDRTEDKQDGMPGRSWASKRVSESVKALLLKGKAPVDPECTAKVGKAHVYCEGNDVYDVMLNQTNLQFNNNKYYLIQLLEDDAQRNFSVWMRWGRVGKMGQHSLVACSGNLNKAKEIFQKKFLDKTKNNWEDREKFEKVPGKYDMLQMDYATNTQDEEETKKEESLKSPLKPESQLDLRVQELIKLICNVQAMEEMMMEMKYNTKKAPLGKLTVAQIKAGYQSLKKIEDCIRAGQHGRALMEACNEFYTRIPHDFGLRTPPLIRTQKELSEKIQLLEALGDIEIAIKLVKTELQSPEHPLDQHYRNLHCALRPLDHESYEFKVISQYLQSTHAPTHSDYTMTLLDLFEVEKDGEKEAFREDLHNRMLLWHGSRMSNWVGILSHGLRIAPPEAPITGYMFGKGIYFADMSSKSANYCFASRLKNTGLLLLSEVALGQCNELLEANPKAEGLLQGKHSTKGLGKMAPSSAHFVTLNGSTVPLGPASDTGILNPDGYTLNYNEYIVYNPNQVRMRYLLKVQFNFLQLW
T2 sequence (P09874 whole entry): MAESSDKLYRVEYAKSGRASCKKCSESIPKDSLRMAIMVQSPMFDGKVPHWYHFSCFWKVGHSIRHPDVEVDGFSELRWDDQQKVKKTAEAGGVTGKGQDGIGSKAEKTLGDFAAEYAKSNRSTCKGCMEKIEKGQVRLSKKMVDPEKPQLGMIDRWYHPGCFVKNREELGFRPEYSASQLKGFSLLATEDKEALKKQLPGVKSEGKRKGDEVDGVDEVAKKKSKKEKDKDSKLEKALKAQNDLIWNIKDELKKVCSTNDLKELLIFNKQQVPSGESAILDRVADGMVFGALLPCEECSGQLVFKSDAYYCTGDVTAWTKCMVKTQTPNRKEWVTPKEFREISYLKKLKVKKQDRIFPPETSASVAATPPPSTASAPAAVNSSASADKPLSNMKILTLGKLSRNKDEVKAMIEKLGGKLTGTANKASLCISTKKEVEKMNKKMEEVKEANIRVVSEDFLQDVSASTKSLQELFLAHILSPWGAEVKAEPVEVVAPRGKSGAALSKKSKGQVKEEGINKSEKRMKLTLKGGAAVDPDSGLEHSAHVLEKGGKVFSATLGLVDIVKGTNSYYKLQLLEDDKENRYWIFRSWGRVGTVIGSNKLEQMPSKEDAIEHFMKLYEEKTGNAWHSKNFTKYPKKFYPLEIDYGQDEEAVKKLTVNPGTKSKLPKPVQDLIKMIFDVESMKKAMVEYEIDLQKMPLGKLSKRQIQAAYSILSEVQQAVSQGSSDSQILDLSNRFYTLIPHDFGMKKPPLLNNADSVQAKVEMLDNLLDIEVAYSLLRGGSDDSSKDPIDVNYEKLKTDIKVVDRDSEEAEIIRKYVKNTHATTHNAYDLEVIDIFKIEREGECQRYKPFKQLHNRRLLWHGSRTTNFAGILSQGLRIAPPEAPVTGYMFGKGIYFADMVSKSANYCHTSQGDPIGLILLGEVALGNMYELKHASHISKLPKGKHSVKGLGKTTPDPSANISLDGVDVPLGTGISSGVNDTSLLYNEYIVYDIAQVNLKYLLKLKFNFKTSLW

| SMILES | Kd [1] [µM] | Selectivity [2] | Kd [2] [µM] | IC50 [3] [µM] |
| --- | --- | --- | --- | --- |
| O=c1[nH]c(C2CCN(C3CCN(c4ccc(OC(F)F)nc4)CC3)C2)cc2ccc(F)cc12 (single isomer, unassigned) [Compound 374b] | 0.01 to 0.1 | ++ (++ indicates a value of 50 to less than 100) | < 0.01 | < 0.01 |
| CCc1ccc(C2CCN(C3CCN(c4ccc(C#N)cc4Cl)CC3)C2)[nH]c1=O (single isomer, unassigned) [Compound 377a] | > 10 | +++ (+++ indicate a value of at least 100) | 0.01 to 0.1 | 0.01 to 0.1 |
| CCc1ccc(C2CCN(C3CCN(c4ccc(C#N)cc4Cl)CC3)C2)[nH]c1=O (single isomer, unassigned) [Compound 377b] | 1 to 10 | +++ (+++ indicate a value of at least 100) | < 0.01 | < 0.01 |
| N#Cc1ccc(N2CCC(N3CCC(c4cc5cccc(F)c5c(=O)[nH]4)C3)CC2)c(Cl)c1 (single isomer, unassigned) [Compound 378a] | 0.1 to 1 | +++ (+++ indicate a value of at least 100) | < 0.01 | < 0.01 |
| N#Cc1ccc(N2CCC(N3CCC(c4cc5cccc(F)c5c(=O)[nH]4)C3)CC2)c(Cl)c1 (single isomer, unassigned) [Compound 378b] | 1 to 10 | +++ (+++ indicate a value of at least 100) | < 0.01 | < 0.01 |
| CCc1ccc(C2CCN(C3CCN(c4ccc(OC(F)F)nc4)CC3)C2)[nH]c1=O (single isomer, unassigned) [Compound 382a] | > 10 | + (+ indicates a value of 10 to less than 50) | 0.1 to 1 | 0.1 to 1 |
| CCc1ccc(C2CCN(C3CCN(c4ccc(OC(F)F)nc4)CC3)C2)[nH]c1=O (single isomer, unassigned) [Compound 382b] | 0.1 to 1 | +++ (+++ indicate a value of at least 100) | < 0.01 | < 0.01 |
| N#Cc1ccc(N2CCC(N3CCC(c4cc5ccc(F)cc5c(=O)[nH]4)C3)CC2)c(F)c1 (single isomer, unassigned) [Compound 385a] | 1 to 10 | +++ (+++ indicate a value of at least 100) | < 0.01 | < 0.01 |
| N#Cc1ccc(N2CCC(N3CCC(c4cc5ccc(F)cc5c(=O)[nH]4)C3)CC2)c(F)c1 (single isomer, unassigned) [Compound 385b] | 0.01 to 0.1 | +++ (+++ indicate a value of at least 100) | < 0.01 | < 0.01 |
| N#Cc1ccc(N2CCC(N3CCC(c4cc5ccc(F)cc5c(=O)[nH]4)C3)CC2)c(Cl)c1 (single isomer, unassigned) [Compound 386a] | 0.1 to 1 | +++ (+++ indicate a value of at least 100) | < 0.01 | < 0.01 |
| N#Cc1ccc(N2CCC(N3CCC(c4cc5ccc(F)cc5c(=O)[nH]4)C3)CC2)c(Cl)c1 (single isomer, unassigned) [Compound 386b] | 1 to 10 | +++ (+++ indicate a value of at least 100) | < 0.01 | < 0.01 |
| O=C(NCC(F)F)c1ccc(N2CCC(N3CCC(c4cc5cccc(F)c5c(=O)[nH]4)C3)CC2)c(F)n1 (single isomer, unassigned) [Compound 390a] | 0.1 to 1 | +++ (+++ indicate a value of at least 100) | < 0.01 | < 0.01 |
| O=C(NCC(F)F)c1ccc(N2CCC(N3CCC(c4cc5cccc(F)c5c(=O)[nH]4)C3)CC2)c(F)n1 (single isomer, unassigned) [Compound 390b] | 0.01 to 0.1 | ++ (++ indicates a value of 50 to less than 100) | < 0.01 | < 0.01 |
| CNC(=O)c1ncc(N2CCC(N3CCC(c4cc5ccc(F)cc5c(=O)[nH]4)C3)CC2)cc1F (single isomer, unassigned) [Compound 395a] | 0.1 to 1 | + (+ indicates a value of 10 to less than 50) | < 0.01 | < 0.01 |
| CNC(=O)c1ncc(N2CCC(N3CCC(c4cc5ccc(F)cc5c(=O)[nH]4)C3)CC2)cc1F (single isomer, unassigned) [Compound 395b] | 0.01 to 0.1 | ++ (++ indicates a value of 50 to less than 100) | < 0.01 | < 0.01 |
| CNC(=O)c1ccc(N2CCC(N3CCC(c4cc5ccc(F)cc5c(=O)[nH]4)C3)CC2)c(C#N)n1 (single isomer, unassigned) [Compound 396a] | 0.1 to 1 | +++ (+++ indicate a value of at least 100) | < 0.01 | < 0.01 |

| SMILES | Kd [1] [µM] | Selectivity [2] | Kd [2] [µM] | IC50 [3] [µM] |
| --- | --- | --- | --- | --- |
| CNC(=O)c1ccc(N2CCC(N3CCC(c4cc5ccc(F)cc5c(=O)[nH]4)C3)CC2)c(C#N)n1 (single isomer, unassigned) [Compound 396b] | 0.1 to 1 | +++ (+++ indicate a value of at least 100) | < 0.01 | < 0.01 |
| N#Cc1nc(C(=O)NC2CC2)ccc1N1CCC(N2CCC(c3cc4ccc(F)cc4c(=O)[nH]3)C2)CC1 (single isomer, unassigned) [Compound 397a] | 0.1 to 1 | +++ (+++ indicate a value of at least 100) | < 0.01 | < 0.01 |
| N#Cc1nc(C(=O)NC2CC2)ccc1N1CCC(N2CCC(c3cc4ccc(F)cc4c(=O)[nH]3)C2)CC1 (single isomer, unassigned) [Compound 397b] | 0.01 to 0.1 | +++ (+++ indicate a value of at least 100) | < 0.01 | < 0.01 |
| CCc1ccc(C2CCN(C3CCN(c4ccc(C(=O)NCC(F)F)nc4F)CC3)C2)[nH]c1=O (single isomer, unassigned) [Compound 398a] | 1 to 10 | +++ (+++ indicate a value of at least 100) | < 0.01 | < 0.01 |
| CCc1ccc(C2CCN(C3CCN(c4ccc(C(=O)NCC(F)F)nc4F)CC3)C2)[nH]c1=O (single isomer, unassigned) [Compound 398b] | 0.1 to 1 | +++ (+++ indicate a value of at least 100) | < 0.01 | < 0.01 |
| O=C(NCC(F)F)c1ccc(N2CCC(N3CCC(c4cc5ccc(F)cc5c(=O)[nH]4)C3)CC2)c(F)n1 (single isomer, unassigned) [Compound 399a] | 0.1 to 1 | +++ (+++ indicate a value of at least 100) | < 0.01 | < 0.01 |
| O=C(NCC(F)F)c1ccc(N2CCC(N3CCC(c4cc5ccc(F)cc5c(=O)[nH]4)C3)CC2)c(F)n1 (single isomer, unassigned) [Compound 399b] | 0.01 to 0.1 | + (+ indicates a value of 10 to less than 50) | < 0.01 | < 0.01 |
| CNC(=O)c1ccc(N2CCC(N3CCC(c4[nH]c(=O)c5cc(F)ccc5c4F)C3)CC2)cn1 (single isomer, unassigned) [Compound 401a] | 0.01 to 0.1 | +++ (+++ indicate a value of at least 100) | < 0.01 | < 0.01 |
| CNC(=O)c1ccc(N2CCC(N3CCC(c4[nH]c(=O)c5cc(F)ccc5c4F)C3)CC2)cn1 (single isomer, unassigned) [Compound 401b] | 0.01 to 0.1 | + (+ indicates a value of 10 to less than 50) | < 0.01 | < 0.01 |
| CNC(=O)c1ccc(N2CCC(N3CCC(c4[nH]c(=O)c5c(F)cccc5c4F)C3)CC2)c(F)n1 (single isomer, unassigned) [Compound 402a] | 0.1 to 1 | +++ (+++ indicate a value of at least 100) | < 0.01 | < 0.01 |
| CNC(=O)c1ccc(N2CCC(N3CCC(c4[nH]c(=O)c5c(F)cccc5c4F)C3)CC2)c(F)n1 (single isomer, unassigned) [Compound 402b] | 0.01 to 0.1 | +++ (+++ indicate a value of at least 100) | < 0.01 | < 0.01 |
| CNC(=O)c1ccc(N2CCC(N3CCC(c4[nH]c(=O)c5ccccc5c4C(F)(F)F)C3)CC2)cn1 (single isomer, unassigned) [Compound 404a] | 1 to 10 | +++ (+++ indicate a value of at least 100) | 0.01 to 0.1 | 0.01 to 0.1 |
| CNC(=O)c1ccc(N2CCC(N3CCC(c4[nH]c(=O)c5ccccc5c4C(F)(F)F)C3)CC2)cn1 (single isomer, unassigned) [Compound 404b] | 1 to 10 | +++ (+++ indicate a value of at least 100) | < 0.01 | < 0.01 |
| CNC(=O)c1ccc(N2CCC(N3CCC(c4cc5c(c(C(F)(F)F)nn5C)c(=O)[nH]4)C3)CC2)c(F)n1 (single isomer, unassigned) [Compound 407a] | 0.1 to 1 | ++ (++ indicates a value of 50 to less than 100) | < 0.01 | 0.01 to 0.1 |
| CNC(=O)c1ccc(N2CCC(N3CCC(c4cc5c(c(C(F)(F)F)nn5C)c(=O)[nH]4)C3)CC2)c(F)n1 (single isomer, unassigned) [Compound 407b] | < 0.01 | + (+ indicates a value of 10 to less than 50) | < 0.01 | < 0.01 |
| CCc1ccc(C2CCN(C3CCN(c4cnc(C(=O)NC5CC5)c(F)c4)CC3)C2)[nH]c1=O (single isomer, unassigned) [Compound 408a] | 0.1 to 1 | +++ (+++ indicate a value of at least 100) | < 0.01 | < 0.01 |
